These are literature values, as cited in patent US20210008004A1, “CANNABINOID FORMULATIONS AND METHODS INCLUDING THE ANTIOXIDANT C60” (priority 2017, published 2021).

One data set deals with CB1 receptor (Homo sapiens, UniProt P21554).
A further data set addresses peripheral CB2-receptors (Homo sapiens, UniProt P34972). As to conditions: in vivo.

Sequence of peripheral CB2-receptors (P34972 whole entry): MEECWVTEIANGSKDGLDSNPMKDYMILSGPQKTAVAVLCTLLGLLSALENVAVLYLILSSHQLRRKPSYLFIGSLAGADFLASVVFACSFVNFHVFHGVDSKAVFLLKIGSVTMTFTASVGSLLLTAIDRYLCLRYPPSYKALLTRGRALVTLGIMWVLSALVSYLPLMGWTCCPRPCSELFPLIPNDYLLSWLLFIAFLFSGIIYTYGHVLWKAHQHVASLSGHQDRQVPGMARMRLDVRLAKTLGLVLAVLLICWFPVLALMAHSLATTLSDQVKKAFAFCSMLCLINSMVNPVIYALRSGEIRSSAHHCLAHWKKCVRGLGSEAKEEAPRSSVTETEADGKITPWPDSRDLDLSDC
Sequence of CB1 receptor (P21554 whole entry): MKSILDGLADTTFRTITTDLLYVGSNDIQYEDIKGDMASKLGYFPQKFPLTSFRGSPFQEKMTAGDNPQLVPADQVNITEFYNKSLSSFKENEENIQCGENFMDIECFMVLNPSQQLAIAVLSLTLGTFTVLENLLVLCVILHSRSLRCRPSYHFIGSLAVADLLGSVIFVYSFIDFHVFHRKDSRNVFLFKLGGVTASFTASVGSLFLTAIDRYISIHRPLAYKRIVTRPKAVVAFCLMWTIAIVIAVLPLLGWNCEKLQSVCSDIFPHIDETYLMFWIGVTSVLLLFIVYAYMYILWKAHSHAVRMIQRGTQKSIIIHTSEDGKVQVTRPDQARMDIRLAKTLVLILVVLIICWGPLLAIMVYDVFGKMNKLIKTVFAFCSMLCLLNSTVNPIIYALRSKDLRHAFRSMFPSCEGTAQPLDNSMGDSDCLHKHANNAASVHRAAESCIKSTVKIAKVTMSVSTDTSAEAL

On to `c12c3c4c5c1c1c6c7c2c2c8c3c3c9c4c4c%10c5c5c1c1c6c6c%11c7c2c2c7c8c3c3c8c9c4c4c9c%10c5c5c1c1c6c6c%11c2c2c7c3c3c8c4c4c9c5c1c1c6c2c3c41` [Example C60, buckminsterfullerene], for which the “solubility in lipids or aqueous solutions” value was “not typically soluble”. The toxicity entry with rodent (even high doses) is on record as “does not exhibit toxicity”. The rodent life span result in the data set on rodent (some rodents) is “doubled”.
As to `COc1ccc(/C=C/c2cc(OC)cc(=O)o2)cc1` [Yangonin], at CB1 receptor, the “affinity to the CB1 receptor” value is reported as “significant affinity”.
Regarding `C=C1CC/C=C(\C)CC[C@@H]2[C@@H]1CC2(C)C` [beta-caryophyllene], the “agonist activity at peripheral CB2-receptors” value on peripheral CB2-receptors is on record as “selective agonist”.
